Measurements as given in PMC3691235, “Discovery of a Novel Dual Fungal CYP51/Human 5-Lipoxygenase Inhibitor: Implications for Anti-Fungal Therapy” (PLoS ONE, 2013).
pIC50: −log10 of the molar value. Where two headings read alike, the source gives them in different places.

Key:
Format in all cases: biochemical
[1] = target: T1, human platelet 12-lipoxygenase (12-LOX) (Homo sapiens, UniProt P18054); assay: Lipoxygenase UV-based inhibitor assay, 12-LOX; conditions: 10 µM AA, pH 8.0
T1 construct: His6 (N); made in house
T1 sequence (P18054 1-663): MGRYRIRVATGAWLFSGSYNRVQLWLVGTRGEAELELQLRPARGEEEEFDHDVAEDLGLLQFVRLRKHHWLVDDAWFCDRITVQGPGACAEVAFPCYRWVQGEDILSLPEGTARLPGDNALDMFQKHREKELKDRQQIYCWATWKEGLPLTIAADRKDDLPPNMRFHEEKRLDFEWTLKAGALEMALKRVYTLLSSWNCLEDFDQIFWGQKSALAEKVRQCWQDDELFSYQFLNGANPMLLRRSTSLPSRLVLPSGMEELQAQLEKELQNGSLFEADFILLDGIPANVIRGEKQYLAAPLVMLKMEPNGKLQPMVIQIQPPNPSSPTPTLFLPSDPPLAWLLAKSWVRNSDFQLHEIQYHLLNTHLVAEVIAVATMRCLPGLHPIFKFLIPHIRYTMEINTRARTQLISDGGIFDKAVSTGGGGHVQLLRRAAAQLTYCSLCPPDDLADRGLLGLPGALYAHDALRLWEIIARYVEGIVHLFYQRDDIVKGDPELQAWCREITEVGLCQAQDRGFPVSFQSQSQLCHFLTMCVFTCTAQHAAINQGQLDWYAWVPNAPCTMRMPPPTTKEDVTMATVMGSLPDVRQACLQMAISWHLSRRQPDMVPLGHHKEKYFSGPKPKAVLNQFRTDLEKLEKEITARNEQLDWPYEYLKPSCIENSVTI
Experimental: (§1) Human leukocyte 5-lipoxygenase was expressed as a non-tagged protein and used as a crude ammonium sulfate protein fraction, as published previously.
(§2) Inhibitor potencies were evaluated through use of the standard UV-based inhibitor assay. The initial rates were determined by following the formation of the conjugated diene product at 234 nm (ε = 25,000 M^−1 cm^−1) with a Perkin-Elmer Lambda 40 UV/Vis spectrophotometer at one substrate concentration and varying inhibitor concentrations. All reactions were 2 mL in volume and constantly stirred using a magnetic stir bar at room temperature (23°C), with the enzyme specific buffer conditions outlined in Table 1. The substrate used for the various isozymes was arachidonic acid (AA) for 5-LOX, 12-LOX, and 15-LOX-2 and linoleic acid (LA) for 15-LOX-1, where concentrations were quantitatively determined by allowing the enzymatic reaction to go to completion. IC50 values were obtained by determining the initial rate at various inhibitor concentrations and plotting them against inhibitor concentration, followed by a hyperbolic saturation curve fit. The data used for the saturation curves were performed in duplicate or triplicate, depending on the quality of the data. […] Inhibitors were stored at −20°C in DMSO. […] The solvent isotope effect of the inhibitor IC50 was investigated utilizing the same conditions and methods as stated above. The pH of the buffered D2O was determined as reported previously.

[2] = target: T2, Human reticulocyte 15-lipoxygenase-1 (15-LOX-1) (Homo sapiens, UniProt P16050); assay: Lipoxygenase UV-based inhibitor assay, 15-LOX-1; conditions: 10 µM LA, pH 7.5
T2 construct: His6 (N); made in house
T2 sequence (P16050 1-662): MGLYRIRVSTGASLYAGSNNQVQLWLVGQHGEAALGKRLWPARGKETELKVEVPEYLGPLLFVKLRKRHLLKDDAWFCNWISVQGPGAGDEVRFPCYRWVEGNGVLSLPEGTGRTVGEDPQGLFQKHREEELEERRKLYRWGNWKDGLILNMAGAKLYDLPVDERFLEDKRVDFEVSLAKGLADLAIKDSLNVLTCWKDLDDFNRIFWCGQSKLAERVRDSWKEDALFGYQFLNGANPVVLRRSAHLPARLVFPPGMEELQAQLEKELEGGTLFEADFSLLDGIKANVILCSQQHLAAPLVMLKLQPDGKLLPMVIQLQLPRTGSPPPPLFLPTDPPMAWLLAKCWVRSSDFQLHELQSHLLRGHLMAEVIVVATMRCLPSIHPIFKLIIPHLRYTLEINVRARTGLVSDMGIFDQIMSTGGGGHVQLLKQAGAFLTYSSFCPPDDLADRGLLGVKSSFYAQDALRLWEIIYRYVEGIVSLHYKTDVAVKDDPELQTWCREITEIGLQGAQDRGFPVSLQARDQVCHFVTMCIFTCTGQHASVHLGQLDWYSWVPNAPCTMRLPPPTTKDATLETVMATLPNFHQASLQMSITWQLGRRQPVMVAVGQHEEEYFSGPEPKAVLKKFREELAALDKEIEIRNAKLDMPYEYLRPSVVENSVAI
Experimental: as §1, §2

[3] = target: T3, Ovine COX-1 (Ovis aries, UniProt P05979); assay: Cyclooxygenase assay (oxygen electrode), COX-1
T3 construct: purchased Cayman chemical 60100
T3 sequence (P05979 25-600): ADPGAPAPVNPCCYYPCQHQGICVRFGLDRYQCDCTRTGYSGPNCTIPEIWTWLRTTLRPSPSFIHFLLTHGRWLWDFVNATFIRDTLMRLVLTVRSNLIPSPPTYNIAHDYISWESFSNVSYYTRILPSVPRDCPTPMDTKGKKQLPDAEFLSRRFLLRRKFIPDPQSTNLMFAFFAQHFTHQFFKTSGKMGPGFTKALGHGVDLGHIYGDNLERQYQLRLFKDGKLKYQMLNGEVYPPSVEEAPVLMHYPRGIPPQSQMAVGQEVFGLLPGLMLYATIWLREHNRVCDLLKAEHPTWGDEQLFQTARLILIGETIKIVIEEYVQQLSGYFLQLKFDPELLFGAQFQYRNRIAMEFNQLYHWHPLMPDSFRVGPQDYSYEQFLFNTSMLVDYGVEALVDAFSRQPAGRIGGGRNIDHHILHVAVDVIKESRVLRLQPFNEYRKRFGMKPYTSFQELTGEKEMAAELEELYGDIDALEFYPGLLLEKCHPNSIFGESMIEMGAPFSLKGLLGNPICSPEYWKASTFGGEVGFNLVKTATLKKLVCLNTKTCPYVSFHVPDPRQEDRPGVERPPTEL
Experimental: Ovine COX-1 (Cat. No. 60100) and human COX-2 (Cat. No. 60122) were purchased from Cayman chemical. Approximately 2 µg of either COX-1 or COX-2 were added to buffer containing 100 µM AA, 0.1 M Tris-HCl buffer (pH 8.0), 5 mM EDTA, 2 mM phenol and 1 µM hematin at 37°C. Data was collected using a Hansatech DW1 oxygen electrode chamber, as described before. Inhibitor or vehicle were mixed with the respective COX in buffer within the electrode cell, the reaction was initiated by the addition of AA, followed by monitoring of rate of oxygen consumption. Ibuprofen, aspirin and indomethacin, and the carrier solvent, DMSO, were used as positive and negative controls, respectively.

[4] = 100 µM AA, pH 8.0, 37°C, oxygen consumption, read-out: COX-1 IC50

Structure (SMILES)	pIC50 [1]	pIC50 [2]	pIC50 [3, 4]	pIC50 [3]
N#Cc1ccc(-c2ccc(CNc3ccc(N4CCCCC4)cc3)o2)cc1 [Compound 14]	< 3.82	< 4.60	< 3.82	–
Cc1cc(C2CCCCC2)n(O)c(=O)c1 [ciclopirox, reference compound]	< 4.00	< 4.00	< 4.30	–
CC(=O)N1CCN(c2ccc(OCC3COC(Cn4ccnc4)(c4ccc(Cl)cc4Cl)O3)cc2)CC1 (centres unmarked) [ketoconazole, reference compound]	< 3.82	< 4.30	–	< 4.30
CC[C@](O)(c1nnc(NCc2ccc3c(-c4ccc(F)cc4)cc(=O)oc3c2)o1)C(F)(F)F [setileuton, reference compound]	< 3.82	< 3.82	–	–

Continued, in another order:

pIC50 [1]	pIC50 [2]	pIC50 [3, 4]	Structure (SMILES)	pIC50 [3]
< 3.82	< 3.82	< 4.30	CC(C)(C)OC(=O)N1CCN(c2ccc(NCc3ccc(-c4ccc(C#N)cc4)o3)cc2)CC1 [Compound 1]	–
< 4.30	< 4.30	< 3.82	CC(=O)N1CCN(c2ccc(NCc3ccc(-c4cccc(Cl)c4)o3)cc2)CC1 [Compound 13]	–
< 3.82	< 3.82	< 3.82	CC(=O)N1CCN(c2ccc(NCC3COC(Cn4ccnc4)(c4ccc(Cl)cc4Cl)O3)cc2)CC1 (centres unmarked) [ketaminazole (16), ketaminazole]	–
